Values of other authors, collected in paper PMC10928227, “Assessing biologic/toxicologic effects of extractables from plastic contact materials for advanced therapy manufacturing using cell painting assay and cytotoxicity screening” (Scientific Reports, 2024).
Like-named read-outs stand apart in the source and are kept apart here.

Details: cited from earlier work; for Risk based on in vitro genotoxicity data from database (from QSAR-toolbox): not checked for in vivo relevance, ref QSAR Toolbox 4.5 database

SMILES: CC(=O)c1ccccc1 [Acetophenone]
- Risk based on in vitro genotoxicity data from database (from QSAR-toolbox): Positive in vitro data

SMILES: Oc1ccccc1 [Phenol]
- Measured and predicted data (remark on genetic toxicity) (heading line of the measured and predicted data section, ref QSAR Toolbox database): suspected of causing genetic defects
- Risk based on in vitro genotoxicity data from database (from QSAR-toolbox): Positive in vitro data

SMILES: CC(C)(C)c1ccc(O)c(C(C)(C)C)c1 [2,4-Di-tert-butylphenol]
- Risk based on in vitro genotoxicity data from database (from QSAR-toolbox): Positive in vitro data

SMILES: OCc1ccccc1 [Benzylalcohol]
- Risk based on in vitro genotoxicity data from database (from QSAR-toolbox): Positive in vitro data

SMILES: Nc1ccccc1 [Aniline]
- Risk based on in vitro genotoxicity data from database (from QSAR-toolbox): Positive in vitro data

SMILES: Cc1ccc(S(N)(=O)=O)cc1 [70-55-3]
- Gene mutation, Bacterial Reverse Mutation Assay (e.g. Ames Test) (Salmonella typhimurium, No Strain Information, in Vitro, Database: Genotoxicity OASIS, ref NIHS Japan): Negative
- Gene mutation, Bacterial Reverse Mutation Assay (e.g. Ames Test) (Salmonella typhimurium, Strain TA 98, in Vitro, Database: Genotoxicity OASIS, ref https://doi.org/10.22427/NTP-DATA-022-00002-0001-000-7, National Institute of Environmental Health Sciences): Negative
- Gene mutation, Bacterial Reverse Mutation Assay (e.g. Ames Test) (Salmonella typhimurium, Strain TA 100, in Vitro, Database: Genotoxicity OASIS, ref https://doi.org/10.22427/NTP-DATA-022-00002-0001-000-7, National Institute of Environmental Health Sciences): Negative
- Gene mutation, Bacterial Reverse Mutation Assay (e.g. Ames Test) (Salmonella typhimurium, Strain TA 102, in Vitro, Database: Genotoxicity OASIS, ref https://doi.org/10.22427/NTP-DATA-022-00002-0001-000-7, National Institute of Environmental Health Sciences): Negative
- Gene mutation, Bacterial Reverse Mutation Assay (e.g. Ames Test) (Salmonella typhimurium, Strain TA 1535, in Vitro, OECD Guideline 471, Database: Genotoxicity OASIS, ref Japan Existing Chemical Data Base): Negative
- Chromosome aberration, in Vitro Mammalian Chromosome Aberration Test (in Vitro, Chinese hamster, Chinese Hamster Lung Cells, Guidelines For Screening Mutagenicity Testing of Chemicals (Chemical Substances Control Law of Japan), Database Toxicity Japan MHLW, ref Japan Ministry of Health Labour and Welfare, http://dra4.nihs.go.jp/mhlw_data/jsp/SearchPageENG.jsp): Negative
- Gene mutation, Bacterial Reverse Mutation Assay (e.g. Ames Test) (in Vitro, E. coli WP2 uvrA, Database Genotoxicity OASIS, ref ECHA, Registration dossier): Negative
- Gene mutation, Bacterial Reverse Mutation Assay (e.g. Ames Test) (in Vitro, Escherichia coli, Strain WP2 UvrA, Guidelines For Screening Mutagenicity Testing of Chemicals (Chemical Substances Control Law of Japan), Database Toxicity Japan MHLW, ref Japan Existing Chemical Data Base, http://dra4.nihs.go.jp/mhlw_data/jsp/SearchPageENG.jsp): Negative
- Chromosome aberration, in Vitro Mammalian Chromosome Aberration Test (in Vitro, No Strain Information, Database Genotoxicity OASIS, ref NIHS Japan): Negative
- Gene mutation, Bacterial Reverse Mutation Assay (e.g. Ames Test) (in Vitro, Salmonella typhimurium, Strain TA 97, Guidelines For Screening Mutagenicity Testing of Chemicals (Chemical Substances Control Law of Japan), Database Toxicity Japan MHLW, ref Japan Existing Chemical Data Base, http://dra4.nihs.go.jp/mhlw_data/jsp/SearchPageENG.jsp): Negative
- Gene mutation, Bacterial Reverse Mutation Assay (e.g. Ames Test) (in Vitro, Salmonella typhimurium, Strain TA 100, Guidelines For Screening Mutagenicity Testing of Chemicals (Chemical Substances Control Law of Japan), Database Toxicity Japan MHLW, ref Japan Existing Chemical Data Base, http://dra4.nihs.go.jp/mhlw_data/jsp/SearchPageENG.jsp): Negative
- Gene mutation, Bacterial Reverse Mutation Assay (e.g. Ames Test) (in Vitro, Salmonella typhimurium, Strain TA 1535, Guidelines For Screening Mutagenicity Testing of Chemicals (Chemical Substances Control Law of Japan), Database Toxicity Japan MHLW, ref Japan Existing Chemical Data Base, http://dra4.nihs.go.jp/mhlw_data/jsp/SearchPageENG.jsp): Negative
- Gene mutation, Bacterial Reverse Mutation Assay (e.g. Ames Test) (in Vitro, Salmonella typhimurium, Strain TA 1535, OECD Guideline 471, Database Genotoxicity OASIS, ref Japan Existing Chemical Data Base): Negative
- Gene mutation, Bacterial Reverse Mutation Assay (e.g. Ames Test) (in Vitro, Salmonella typhimurium, Strain TA 1537, Guidelines For Screening Mutagenicity Testing of Chemicals (Chemical Substances Control Law of Japan), Database Toxicity Japan MHLW, ref Japan Existing Chemical Data Base, http://dra4.nihs.go.jp/mhlw_data/jsp/SearchPageENG.jsp): Negative
- Gene mutation, Bacterial Reverse Mutation Assay (e.g. Ames Test) (in Vitro, Salmonella typhimurium, Strain TA 1537, OECD Guideline 471, Database Genotoxicity OASIS, ref Japan Existing Chemical Data Base): Negative

SMILES: CC(C)(c1ccc(O)cc1)c1ccc(O)cc1 [Bisphenol A]
- Risk based on in vitro genotoxicity data from database (from QSAR-toolbox): Positive in vitro data

SMILES: Cc1cc(C)c(C(=O)P(=O)(c2ccccc2)c2ccccc2)c(C)c1 [75980-60-8]
- Chromosome aberration, in Vitro Mammalian Chromosome Aberration Test (in Vitro, Chinese hamster, Chinese Hamster Cells, Database Genotoxicity OASIS, ref Scientific Committee on Consumer Safety ( SCCS), 27 March 2014, SCCS/1528/14): Negative
